Test results taken from US8632839B2, “Methods of forming self-supporting films for delivery of therapeutic agents” (priority 2010, dated 2014).
Where a name gives a salt, the structure may show the parent alone.

Assay: saturation and payload limits for dip coating bupivacaine HCl on polyester mesh (FIG. 8)
Type: physicochemical
Conditions: Parietex monofilament polyester mesh without polymer film
Text: Further, it is believed that spraying films on a medical device (e.g., mesh) compared to other conventional methods, such as dip coating, provides increased loading of the therapeutic agent.
More particularly FIG. 8 illustrates the loading limits for a polyester mesh (Parietex™ monofilament mesh) without a polymer film.

saturation and payload limit for dip coating solution (solution in MeOH): 12 % w/v
saturation and payload limit for dip coating solution (solution in water): 5 % w/v
Structure (SMILES): CCCCN1CCCCC1C(=O)Nc1c(C)cccc1C (centres unmarked) [bupivacaine HCl, bupivacaine hydrochloride]
